Earlier results in patent US8445438B2, “Compositions comprising capture peptides for A β-amyloid peptide” (Recombinant Technologies LLC, priority 2008, dated 2013).

System: Aβ
Conditions: peptide based on the GxFxGxF scaffold

Chain of Aβ (P05067 672-711 limits assumed): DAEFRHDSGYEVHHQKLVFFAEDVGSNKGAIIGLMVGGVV

## RGTWEGKW (listed as Homo sapiens)
  cellular toxicity: reduce cellular toxicity
